Source: patent US20040157773A1, “Farnesyl protein transferase inhibitors for treating cachexia” (priority 2003, published 2004)

Assays:
[1] = tested on: A375.S2 human melanoma cells; experiment: Tumor growth of subcutaneous A375.S2 xenografts in nude mice; type: in vivo; conditions: oral
Source text: (§1) A375.S2 human melanoma cells were purchased from the American Type Culture Collection (Rockville, Md.). Cells were maintained in Dulbecco's Modified Eagle's Medium supplemented with pyruvate, nonessential amino acids, 10% fetal calf serum and penicillin-streptomycin.
(§2) Female nu/nu immunodeficient nude mice (42 days old) were purchased from Charles River Laboratories (Wilmington, Mass.). Mice were housed five per cage in microisolator cages placed in laminar flow shelving to maintain sterility. All bedding, food, water and cages were autoclaved. Animals were handled within the sterile confines of a laminar flow cabinet. The mice were otherwise maintained under standard vivarium conditions.
Cells growing as monolayers in T150 tissue culture flasks were detached by trypsinization with 10 ml of 0.05% trypsin plus 0.53 mM EDTA per flask. […] A 1.0 ml portion of cell suspension was added to 20 ml of diluent and counted on a Coulter particle counter. […]
Analysis of variance, mean values for treatment groups and standard error of the mean for in vivo parameters were calculated using IMSL subroutines on a VAX computer. […] Weight loss was calculated for each individual animal from day 1 to day 23. Mean body weight loss for each treatment group was calculated and used for statistical analyses.

[2] = Body weight loss (cachexia) in nude mice bearing subcutaneous A375.S2 tumors; type: in vivo; conditions: for reduction in weight loss: weight loss day 1 to day 23, corrected for tumor burden, vs vehicle
Source text: as §1, §2
Cells growing as monolayers in T150 tissue culture flasks were detached by trypsinization with 10 ml of 0.05% trypsin plus 0.53 mM EDTA per flask. Tumor cell suspensions were pooled and trypsin was inactivated by the addition of serum containing medium (10 ml per 40 ml of trypsin cell suspension). Cells were collected by centrifugation and resuspended in Hank's Balanced Salt Solution (HBSS) warmed to 37° C. A 1.0 ml portion of cell suspension was added to 20 ml of diluent and counted on a Coulter particle counter. The cell suspensions were recentrifuged and resuspended at a concentration of 1×10^6 cell per 0.10 ml of HBSS. Mice were inoculated with a single subcutaneous injection of 0.10 ml of tumor cell suspension in the inguinal region. Mice were housed five per cage with 15 mice assigned to each treatment group. Mice were tagged by ear punches to allow the monitoring of individual mice during the course of the study. Body weight and tumor size determined from caliper measurements were measured weekly. The caliper measurements of length and width were multiplied to obtain tumor areas. At the end of study, mice were sacrificed by CO2 asphyxiation. Three days after tumor inoculation, the five-day treatment with R115777 was initiated. R115777 was administered once daily by oral gavage in a 20% β-cyclodextrin vehicle as a volume of 0.10 ml of solution per 10 gm body weight. Control groups received the same dosage volume of the 20% β-cyclodextrin vehicle.
R115777 was prepared for oral administration by dissolving the compound first as a 2× concentrated stock in 40% hydroxypropyl β-cyclodextrin in 0.1 N HCl. R115777 was dissolved by stirring vigorously approximately 30 minutes followed by sonication for 10 min. The R115777 solutions were brought to a final concentration by diluting 1:1 with 0.1 N HCl. The final drug solutions were sterile filtered immediately and transferred to sterile tubes. Solutions were stored refrigerated and protected from light during the course of the study and sterility was maintained by opening solutions under sterile laminar flow conditions.
Analysis of variance, mean values for treatment groups and standard error of the mean for in vivo parameters were calculated using IMSL subroutines on a VAX computer. A value of p<0.05 was considered significant. Weight loss was calculated for each individual animal from day 1 to day 23. Mean body weight loss for each treatment group was calculated and used for statistical analyses.

SMILES: Cn1cncc1C(N)(c1ccc(Cl)cc1)c1ccc2c(c1)c(-c1cccc(Cl)c1)cc(=O)n2C (single isomer, unassigned; (+)) [R115777, (+)-6-[amino(4-chlorophenyl)(1-methyl-1H-imidazol-5-yl)methyl]-4-(3-chlorophenyl)-1-methyl-2(1H)-quinolinone]
- reduction of final tumor weight ([1]; highest tested dose, postmortem tumor weight (FIG. 5)): 27%
- tumor growth from tumor area measurements ([1]; 50-200 mg/kg, biweekly tumor area measurements (FIG. 1)): minimal reduction in tumor growth
- reduction in weight loss ([2]; 50 mg/kg once daily oral gavage, A375.S2 tumor-bearing nude mice): 28%
- reduction in weight loss ([2]; 100 mg/kg once daily oral gavage, A375.S2 tumor-bearing nude mice): 45%
- reduction in weight loss ([2]; 200 mg/kg once daily oral gavage, A375.S2 tumor-bearing nude mice): 67%
- body weight course (weight loss) ([2]; oral, 50-200 mg/kg, body weight over time from day 14 (FIG. 2), A375.S2 tumor-bearing nude mice): appeared to prevent or delay the weight loss in a dose-dependent fashion
- body weight loss, statistical result ([2]; oral, 50-200 mg/kg, individual weight loss day 1 to day 23 corrected for tumor burden (FIG. 3), p<0.05 significant): significant dose dependent reduction of body weight loss
